According to patent US10160867B2, “Benzoxaborole-containing coating resistant to cellulose-supportable fungus” (THE PENN STATE RESEARCH FOUNDATION, priority 2015, dated 2018):
In brackets after ≈: the same amount, converted by molar mass. Each block holds one compound with its values, some of them ahead of it.

Legend:
Assay type in all cases: cell-based
[1] = tested on: Alternaria alternata; assay: 3 day MIC, broth microdilution in 25% PDB; conditions: 72 h, 25% PDB, read-out: 3 day MIC
Method: (§1) Stock solutions (concentrations of between 4,000 μg/mL to 10,000 μg/mL; stored at −18° C.) of the above antifungals were prepared in dimethyl sulfoxide (DMSO). The stock solutions were further diluted into sterile 25% potato dextrose broth (PDB) so that the diluted solutions could be used for the antifungal susceptibility studies. This way, a typical microdilution study would reach a final ratio of about 0.5-2% v/v of DMSO in 25% PDB.
(§2) Spore inocula were prepared in sterile distilled water with 0.1% Tween® 20 (a polysorbate surfactant), and a hemocytometer was used to determine the spore density. Typically, the spore inoculum was prepared fresh prior to each study, and the inoculum was appropriately diluted to a final concentration of 0.4-1×10^5 spores/mL or colony-forming unit (CFU)/mL in each study. The spore suspension can be stored in a refrigerator at 4° C. for up to one week.
(§3) The studies were performed in flat bottom, 96-well microtiter plates (Greiner Bio-One, Frickenhausen, Germany).
(§4) Plates sealed with clear polyester film (VWR, Radnor, Pa.) were incubated at a temperature of about 25° C. The progress of fungal growth was monitored at 48 hours and 72 hours.

[2] = tested on: Penicillium brevicompactum; assay: 3 day MIC, broth microdilution in 25% PDB; conditions: 72 h, 25% PDB, read-out: 3 day MIC
Method: as §1, §2, §3, §4

[3] = tested on: Penicillium chrysogenum; assay: 3 day MIC, broth microdilution in 25% PDB; conditions: 72 h, 25% PDB, read-out: 3 day MIC
Method: as §1, §2, §3, §4

[4] = tested on: Penicillium corylophilum; assay: 3 day MIC, broth microdilution in 25% PDB; conditions: 72 h, 25% PDB, read-out: 3 day MIC
Method: as §1, §2, §3, §4

[5] = tested on: Penicillium purpurogenum; assay: 3 day MIC, broth microdilution in 25% PDB; conditions: 72 h; Penicillium purpurogenum; 25% PDB; read-out: 3 day MIC
Method: as §1, §2, §3, §4

[6] = tested on: Stachybotrys chartarum; assay: 3 day MIC, broth microdilution in 25% PDB; conditions: 72 h, 25% PDB, read-out: 3 day MIC
Method: as §1, §2, §3, §4

[7] = tested on: Alternaria alternata; assay: Fungus resistance test for painted surfaces containing antifungal additives (defacement rating); conditions: +100 μg/mL in Olympic Home paint
Method: (§5) A Defacement Rating is measured by estimating the percentage of surface defacement with 10 being no defacement and 0 begin completely defaced.
(§6) This test was used to evaluate the resistance of paint films containing antifungal additives to surface fungal growth.
(§7) Olympic® Home interior flat latex paint (PPG Industries, Pittsburgh, Pa.) and Valspar® QuikHide White flat interior paint (Valspar Corporation, Minneapolis, Minn.) were used for all studies unless otherwise noted. Stock solutions of the antifungal additives of interest were prepared in reagent grade dimethyl sulfoxide (DMSO; Alfa Aesar, Ward Hill, Mass.). Additives were spiked (by adding appropriate amounts of the antifungal stock solutions) into the liquid paint at specified concentrations. Samples of the additive-spiked paint were vigorously mixed with a vortex mixer for at least one minute to ensure uniform dispersion of the additive in the paint. […] Studies that use other brands of paint followed the same protocol as described for those using the Olympic® Home interior flat latex paint and Valspar® QuikHide paint.
(§8) Test surfaces were prepared in triplicate. In most cases, the tested conditions were repeated on a different date, again in triplicate. […] Two coats of paint were applied with a polyester brush to completely cover both faces of the filter paper disc, allowing at least four hours drying time between coats.
(§9) Nutrient-Salts Agar (NSA) medium was prepared according to ASTM method G21-13 in 100×15 mm sterile polystyrene petri dishes (VWR® Radnor, Pa.) with a solidified agar layer of about 3 to about 6 mm (⅛ to ¼ in.) in depth. The agar was allowed to solidify for at least 24 hours before being used. The painted test filter paper discs were placed in the center of the agar plates in a biosafety hood while wearing clean nitrile gloves.
(§10) The paint coatings were evaluated against three representative cellulose-supportable fungi: Stachybotrys chartarum, Penicillium chrysogenum, and Alternaria alternata. […] Fungal isolates of Alternaria alternata and Penicillium chrysogenum were obtained from the Plant Pathology and Environmental Microbiology Department at Penn State University.
(§11) A spore suspension of each of these fungi was prepared by pouring a 20-mL portion of autoclaved deionized water containing 0.01% Tween® 20 onto a subculture of each fungal species. Spores were counted with the use of a hemocytometer (Hausser Scientific, Horsham, Pa.) under a compound light microscope. Spore suspensions of Stachybotrys chartarum and Penicillium chrysogenum were diluted to 1×10^6 spores/mL with autoclaved deionized water. Spore suspensions of Alternaria alternata were used “as is” in the range of 200,000 to 400,000 spores/mL.
(§12) Painted test surfaces were inoculated with a spray bottle or with a sterile cotton-tipped applicator. To inoculate the sample with a spray bottle, the spore suspension was sprayed twice on the painted test discs with an autoclaved spray bottle that delivered approximately 0.14 g of fluid per spray. To inoculate the sample with a cotton-tipped applicator, an autoclaved cotton-tipped applicator was submerged in approximately 400 μL of the spore inoculum solution (spore concentrations described above) and applied evenly over the surface of the painted test surface twice. A fresh autoclaved cotton-tipped applicator was used for the application of each painted disc. All the paint studies with Alternaria alternata and Stachybotrys chartarum were inoculated using the spray bottle method. For studies with Penicillium chrysogenum using Olympic® Home paint, the spray bottle inoculation method was used. For studies with Penicillium chrysogenum using Valspar® QuikHide paint, the cotton-tipped applicator inoculation method was used.
(§13) After inoculation, the NSA agar plates were sealed with Parafilm®.

[8] = tested on: Penicillium chrysogenum; assay: as above
Method: as §5, §6, §7, §8, §9, §10, §11, §12, §13

[9] = tested on: Stachybotrys chartarum; assay: as above; conditions: +100 μg/mL in Olympic Home paint
Method: as §5, §6, §7, §8, §9, §10, §11, §12, §13

[10] = tested on: Alternaria alternata; assay: Fungus resistance test after painting over fungal growth (defacement rating); conditions: painted over fungal growth, +100 μg/mL in Olympic Home paint
From the text: (§14) In this series of experiments, fungal growth was allowed to cover a painted surface (surface containing 2 coats of the unaltered paint) to a defacement rating of 3-5, forming a ‘contaminated surface’. […] The paint application was extended approximately 1-2 cm beyond the edge of the disc onto the NSA medium. Each formulation used a separate brush to avoid cross contamination. The re-painted discs were placed back into the humid environment with elevated temperature to encourage fungal growth.
(§15) This test was used to evaluate the ability of paint films containing antifungal additives to prevent the re-emergence of fungal growth after painting over existing growth.
(§16) Olympic® Home interior flat latex paint (PPG Industries, Pittsburgh, Pa.) and Valspar® QuikHide White flat interior paint (Valspar Corporation, Minneapolis, Minn.) were used for the experiments in this study unless specified. Stock solutions of the antifungal additives of interest were prepared in reagent grade dimethyl sulfoxide (DMSO; Alfa Aesar, Ward Hill, Mass.). Additives were spiked (by adding appropriate amounts of the antifungal stock solutions) into the liquid paint at specified concentrations. Samples of additive-spiked paint were vigorously mixed with a vortex mixer for at least one minute to insure uniform dispersion of the additive in the paint. […] Studies that used other brands of paint followed the same protocol as described for those using the Olympic® Home interior flat latex paint.
as §8
as §9, with “media” for “medium”, “from” for “of about”, “to” for “to about”
as §10, with “representative” for “representative cellulose-supportable”
(§17) A spore suspension of each of these fungi was prepared by pouring a 20-mL portion of autoclaved deionized water containing 0.01% Tween® 20 onto a subculture of each fungal species. Spores were counted with the use of a hemocytometer (Hausser Scientific, Horsham, Pa.) under a microscope. Spore suspensions of Stachybotrys chartarum and Penicillium chrysogenum were diluted to 1×10^6 spores/mL with autoclaved deionized water. Spore suspensions of Alternaria alternata were used “as is” in the range of 200,000 to 400,000 spores/mL.
(§18) Painted test surfaces were inoculated with a spray bottle or with a cotton-tipped applicator. To inoculate the sample with a spray bottle, the spore suspension was sprayed twice on the painted test discs with a spray bottle that delivered approximately 0.14 g of fluid per spray. To inoculate the sample with a cotton-tipped applicator, an autoclaved cotton-tipped applicator was submerged in approximately 400 μL of the inoculum solution and applied evenly over the surface of the painted test surface twice.

[11] = tested on: Penicillium chrysogenum; assay: as above; conditions: painted over fungal growth, +200 μg/mL in Valspar QuikHide paint
From the text: as §14, §15, §16, §8
as §9, with “media” for “medium”, “from” for “of about”, “to” for “to about”
as §10, with “representative” for “representative cellulose-supportable”
as §17, §18

[12] = tested on: Stachybotrys chartarum; assay: as above; conditions: for Average defacement rating ± standard deviation: painted over fungal growth, +100 μg/mL in Olympic Home paint
From the text: as §14, §15, §16, §8
as §9, with “media” for “medium”, “from” for “of about”, “to” for “to about”
as §10, with “representative” for “representative cellulose-supportable”
as §17, §18

[13] = tested on: Aspergillus flavus; assay: 3 day MIC, broth microdilution in 25% PDB; conditions: 72 h
Method: as §1, §2
(§19) The minimal inhibitory concentrations (MICs) for individual antifungal agents were determined by following a modified broth microdilution protocol CLSI (Clinical and Laboratory Standards Institute) M38-A2 [Clinical and Laboratory Standards Institute (2008) Reference method for broth dilution antifungal susceptibility testing of filamentous fungi—2nd edition: Approved Standard M38-A2, CLSI, Wayne, Pa.] where 25% potato dextrose broth (PDB) was used as the medium. The studies were performed in flat bottom, 96-well microtiter plates (Greiner Bio-One, Frickenhausen, Germany).
as §4

[14] = tested on: Aspergillus fumigatus; assay: 3 day MIC, broth microdilution in 25% PDB; conditions: 72 h
Method: as §1, §2, §19, §4

[15] = tested on: Aspergillus niger; assay: 3 day MIC, broth microdilution in 25% PDB; conditions: 72 h
Method: as §1, §2, §19, §4

[16] = tested on: Aureobasidium pullulans; assay: 3 day MIC, broth microdilution in 25% PDB; conditions: 72 h
Method: as §1, §2, §19, §4

[17] = tested on: Fusarium oxysparum ST-33; assay: 3 day MIC, broth microdilution in 25% PDB; conditions: ST33, 72 h
Method: as §1, §2, §19, §4

[18] = tested on: Mucor spp.; assay: 3 day MIC, broth microdilution in 25% PDB; conditions: 72 h
Method: as §1, §2, §19, §4

[19] = tested on: Rhizopus spp.; assay: 3 day MIC, broth microdilution in 25% PDB; conditions: 72 h
Method: as §1, §2, §19, §4

- MIC [1]: 100 µg/mL (≈ 629 µM)
- MIC [2]: 50 µg/mL (≈ 315 µM)
- MIC [3]: 100 µg/mL (≈ 629 µM)
- MIC [4]: 100 µg/mL (≈ 629 µM)
- MIC [5]: 25 µg/mL (≈ 157 µM)
- MIC [6]: 12.5 µg/mL (≈ 78.6 µM)
SMILES: N#Cc1ccc2c(c1)COB2O [Compound B11, 1-hydroxy-1,3-dihydro-2,1-benzoxaborole-5-carbonitirile]

SMILES: OB1OCc2ccccc21 [Compound B0, 2-(hydroxymethyl)-benzene boronic acid hemiester]
- Average defacement rating ± standard deviation ([7]; 7 days): 2.3 ± 2.3
- Average defacement rating ± standard deviation ([7]; 14 days): 0.5 ± 1.8
- Average defacement rating ± standard deviation ([7]; 21 days): 0.0 ± 0.0
- Average defacement rating ± standard deviation ([8]; +100 μg/mL in Olympic Home paint, 7 days): 2.7 ± 0.8
- Average defacement rating ± standard deviation ([8]; +100 μg/mL in Olympic Home paint, 14 days): 0.0 ± 0.0
- Average defacement rating ± standard deviation ([8]; +100 μg/mL in Olympic Home paint, 21 days): 0.0 ± 0.0
- Average defacement rating ± standard deviation ([8]; +200 μg/mL in Olympic Home paint, 7 days): 10.0 ± 0.0
- Average defacement rating ± standard deviation ([8]; +200 μg/mL in Olympic Home paint, 14 days): 6.8 ± 4.0
- Average defacement rating ± standard deviation ([8]; +200 μg/mL in Olympic Home paint, 21 days): 5.0 ± 5.5
- Average defacement rating ± standard deviation ([8]; +200 μg/mL in Valspar QuikHide paint, 7 days): 10.0 ± 0.0
- Average defacement rating ± standard deviation ([8]; +200 μg/mL in Valspar QuikHide paint, 14 days): 6.8 ± 4.0
- Average defacement rating ± standard deviation ([8]; +200 μg/mL in Valspar QuikHide paint, 21 days): 5.0 ± 5.5
- Average defacement rating ± standard deviation ([9]; 7 days): 0.7 ± 1.3
- Average defacement rating ± standard deviation ([9]; 14 days): 0.0 ± 0.0
- Average defacement rating ± standard deviation ([9]; 21 days): 0.0 ± 0.0
- Average defacement rating ± standard deviation ([10]; 7 days): 2.1 ± 1.6 (6)
- Average defacement rating ± standard deviation ([10]; 14 days): 1.0 ± 1.3 (6)
- Average defacement rating ± standard deviation ([10]; 21 days): 0.4 ± 0.6 (6)
- Average defacement rating ± standard deviation ([11]; 7 days): 0.0 ± 0.0 (9)
- Average defacement rating ± standard deviation ([11]; 14 days): 0.0 ± 0.0 (9)
- Average defacement rating ± standard deviation ([11]; 21 days): 0.0 ± 0.0 (9)
- Average defacement rating ± standard deviation ([12]; 7 days): 6.1 ± 3.3 (9)
- Average defacement rating ± standard deviation ([12]; 14 days): 4.4 ± 3.0 (9)
- Average defacement rating ± standard deviation ([12]; 21 days): 3.9 ± 2.9 (9)

- MIC [1]: 200 µg/mL (≈ 1120 µM)
- MIC [2]: > 200 µg/mL
- MIC [3]: > 200 µg/mL
- MIC [4]: > 200 µg/mL
- MIC [5]: > 200 µg/mL
- MIC [6]: 100 µg/mL (≈ 562 µM)
SMILES: O=C(O)c1ccc2c(c1)COB2O [Compound B10, 1-hydroxy-1,3-dihydro-2,1-benzoxaborole-5-carboxylic acid]

- MIC [1]: 200 µg/mL (≈ 1340 µM)
- MIC [6]: 64 µg/mL (≈ 430 µM)
- MIC [13]: > 64 µg/mL
- MIC [14]: > 64 µg/mL
- MIC [15]: > 64 µg/mL
- MIC [16]: > 64 µg/mL
- MIC [17]: > 64 µg/mL
- MIC [18]: > 64 µg/mL
- MIC [19]: > 64 µg/mL
SMILES: Nc1ccc2c(c1)COB2O [Compound B6, 5-Amino-1,3-dihydro-2,1-benzoxaborol-1-ol]
- ability to inhibit Stachybotrys chartarum re-emergence on the surfaces ([12]; painting over contaminated surfaces, paints containing 100 μg/mL, after 7 days): very little ability to inhibit
